In patent publication US20220184086A1, “PLK1 INHIBITORS AND PSA LEVELS IN PROSTATE CANCER” (Cardiff Oncology, Inc., priority 2019, published 2022):
Like-named read-outs stand apart in the source and are kept apart here.

What was measured:
CYP2C9 = molecular target: T1, CYP2C9 (Homo sapiens, UniProt P11712); assay: Inhibition of human cytochrome P450s, human liver microsomes; format: in vitro ADME; conditions: Diclofenac 4-hydroxylation, mean ± SEM
T1 construct: was investigated using human liver microsomes; from tissue; host or cells: human liver microsomes

CYP2C19 = molecular target: T2, CYP2C19 (Homo sapiens, UniProt P33261); assay: as above; format: in vitro ADME; conditions: Mephenytoin 4-hydroxylation, mean ± SEM
T2 construct: was investigated using human liver microsomes; from tissue; host or cells: human liver microsomes

CYP2D6 = molecular target: T3, CYP2D6 (Homo sapiens, UniProt P10635); assay: as above; format: in vitro ADME; conditions: Bufuralol 1-hydroxylation, mean ± SEM
T3 construct: was investigated using human liver microsomes; from tissue; host or cells: human liver microsomes

[1] = tested on: adult patients with advanced/metastatic solid tumors; conditions: cited from earlier work
[2] = Pharmacokinetics from the prior phase 1 trial; format: in vivo; conditions: 24 mg/m^2 dose
Description: This is consistent with the observed downward changes of PSA values for patients shown above.

xenograft tumor = conditions: mice, oral administration, well tolerated doses; cited from earlier work
[3] = tested on: cell lines, both from solid as well as hematologic tumors; conditions: large number of cell lines; cited from earlier work
CYP1A2 = molecular target: T4, CYP1A2 (Homo sapiens, UniProt P05177); assay: Inhibition of human cytochrome P450s, human liver microsomes; format: in vitro ADME
T4 construct: was investigated using human liver microsomes; from tissue; host or cells: human liver microsomes
T4 sequence (P05177 1-516): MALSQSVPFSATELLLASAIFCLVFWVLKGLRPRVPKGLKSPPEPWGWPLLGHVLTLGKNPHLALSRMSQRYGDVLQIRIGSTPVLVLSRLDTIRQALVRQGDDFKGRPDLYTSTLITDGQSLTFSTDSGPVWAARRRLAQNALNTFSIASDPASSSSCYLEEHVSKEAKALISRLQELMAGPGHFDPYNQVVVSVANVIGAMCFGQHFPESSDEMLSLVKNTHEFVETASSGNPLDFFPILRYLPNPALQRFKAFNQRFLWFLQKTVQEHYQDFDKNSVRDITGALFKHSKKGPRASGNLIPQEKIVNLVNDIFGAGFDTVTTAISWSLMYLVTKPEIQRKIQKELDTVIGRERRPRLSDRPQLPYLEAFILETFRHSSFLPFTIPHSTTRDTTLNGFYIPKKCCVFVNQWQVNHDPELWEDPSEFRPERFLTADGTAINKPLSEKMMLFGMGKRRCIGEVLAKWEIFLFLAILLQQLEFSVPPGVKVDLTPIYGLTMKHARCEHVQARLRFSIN

[4] = tested on: patients with metastatic castration-resistant prostate cancer (mCRPC)
[5] = tested on: circulating tumor cells (CTC); assay: Phase 2 study: circulating tumor cell (CTC) evaluation; format: in vivo, human; conditions: for CTC Fold Change: C1D1 to C5D1; for CTC Count (C5D1): onvansertib+abiraterone
Experimental: Circulating tumor cell (CTC) evaluation, reported as favorable or unfavorable (<5 vs.≥CTC/7.5 ml of blood), is shown in FIG. 8. At baseline, 25 (78%) patients had unfavorable CTC count with median of 19 CTC/7.5 ml. Ten of the unfavorable patients were re-analyzed after 12 weeks of treatment.

[6] = rodent and nonrodent species; cited from earlier work
[7] = Phase 2 study Arm A: absolute neutrophil counts (ANC); format: in vivo, human; conditions: 7 patients plotted, patients 02-002 and 02-005
Experimental: To evaluate this further, neutrophil levels were assessed for patients within Arm A of the current trial. Absolute neutrophil counts (ANC) are plotted in FIG. 3 for 7 patients, with ANC 1.5 indicated as the threshold for Grade 2 (CTCAE version 4.03). Two patients experienced ≥Grade 2 neutropenia after the first cycle of treatment (02-002 and 02-005).

CYP3A4 = molecular target: T5, CYP3A4 (Homo sapiens, UniProt P08684); assay: Inhibition of human cytochrome P450s, human liver microsomes; format: in vitro ADME; conditions: mean ± SEM
T5 construct: was investigated using human liver microsomes; from tissue; host or cells: human liver microsomes

CYP2C8 = molecular target: T6, CYP2C8 (Homo sapiens, UniProt P10632); assay: as above; format: in vitro ADME
T6 construct: was investigated using human liver microsomes; from tissue; host or cells: human liver microsomes
T6 sequence (P10632 1-490): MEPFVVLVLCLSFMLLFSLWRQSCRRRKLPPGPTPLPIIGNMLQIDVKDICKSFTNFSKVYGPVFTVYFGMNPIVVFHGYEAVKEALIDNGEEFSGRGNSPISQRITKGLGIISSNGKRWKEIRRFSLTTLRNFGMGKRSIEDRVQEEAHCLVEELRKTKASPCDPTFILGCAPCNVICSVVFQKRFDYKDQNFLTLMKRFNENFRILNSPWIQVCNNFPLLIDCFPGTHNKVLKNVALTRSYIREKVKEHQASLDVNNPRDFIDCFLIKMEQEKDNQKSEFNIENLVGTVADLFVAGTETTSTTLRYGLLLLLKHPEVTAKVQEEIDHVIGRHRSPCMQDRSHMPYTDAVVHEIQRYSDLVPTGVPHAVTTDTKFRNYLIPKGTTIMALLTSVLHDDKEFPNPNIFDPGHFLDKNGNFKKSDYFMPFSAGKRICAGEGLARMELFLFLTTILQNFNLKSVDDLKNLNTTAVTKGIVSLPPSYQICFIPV

[8] = ten patients with unfavorable baseline CTC re-analyzed after 12 weeks of treatment

T5 sequence (P08684 whole entry): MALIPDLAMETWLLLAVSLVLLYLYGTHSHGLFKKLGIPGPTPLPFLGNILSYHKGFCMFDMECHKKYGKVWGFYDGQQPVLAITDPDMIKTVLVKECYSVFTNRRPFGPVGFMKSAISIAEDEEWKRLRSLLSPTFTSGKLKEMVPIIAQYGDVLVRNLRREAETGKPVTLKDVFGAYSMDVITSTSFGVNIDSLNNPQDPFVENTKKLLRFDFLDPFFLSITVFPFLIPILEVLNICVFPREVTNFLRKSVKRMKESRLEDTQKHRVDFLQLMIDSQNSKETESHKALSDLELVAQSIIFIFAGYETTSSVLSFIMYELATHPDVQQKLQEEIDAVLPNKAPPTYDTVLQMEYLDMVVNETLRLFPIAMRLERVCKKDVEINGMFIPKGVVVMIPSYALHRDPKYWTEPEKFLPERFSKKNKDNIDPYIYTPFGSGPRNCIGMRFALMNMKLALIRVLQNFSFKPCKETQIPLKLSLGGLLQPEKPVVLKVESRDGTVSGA
T3 sequence (P10635 whole entry): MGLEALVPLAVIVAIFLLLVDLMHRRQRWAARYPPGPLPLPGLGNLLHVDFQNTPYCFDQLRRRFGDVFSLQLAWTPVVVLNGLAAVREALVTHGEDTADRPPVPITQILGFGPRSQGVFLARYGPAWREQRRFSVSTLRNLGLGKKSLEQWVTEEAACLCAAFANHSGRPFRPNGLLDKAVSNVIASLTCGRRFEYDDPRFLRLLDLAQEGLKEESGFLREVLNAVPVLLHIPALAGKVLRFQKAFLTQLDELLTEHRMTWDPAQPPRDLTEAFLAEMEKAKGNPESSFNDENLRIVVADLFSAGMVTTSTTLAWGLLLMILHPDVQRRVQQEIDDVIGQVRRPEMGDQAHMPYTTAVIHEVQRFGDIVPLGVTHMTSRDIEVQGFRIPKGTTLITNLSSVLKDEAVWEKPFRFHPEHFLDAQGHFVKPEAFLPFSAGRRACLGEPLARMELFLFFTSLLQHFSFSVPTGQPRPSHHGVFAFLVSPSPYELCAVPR
T1 sequence (P11712 whole entry): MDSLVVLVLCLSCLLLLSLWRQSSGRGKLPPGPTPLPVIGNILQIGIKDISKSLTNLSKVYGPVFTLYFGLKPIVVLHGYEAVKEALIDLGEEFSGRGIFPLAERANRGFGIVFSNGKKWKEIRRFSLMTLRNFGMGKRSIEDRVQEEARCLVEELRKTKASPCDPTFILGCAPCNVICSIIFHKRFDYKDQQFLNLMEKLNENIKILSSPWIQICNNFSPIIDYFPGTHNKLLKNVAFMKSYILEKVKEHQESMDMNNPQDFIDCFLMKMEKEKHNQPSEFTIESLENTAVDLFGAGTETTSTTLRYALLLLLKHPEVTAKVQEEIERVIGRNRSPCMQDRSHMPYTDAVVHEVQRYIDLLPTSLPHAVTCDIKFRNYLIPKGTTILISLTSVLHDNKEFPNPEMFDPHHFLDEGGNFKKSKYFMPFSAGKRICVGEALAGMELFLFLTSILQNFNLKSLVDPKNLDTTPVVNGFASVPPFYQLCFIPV
T2 sequence (P33261 whole entry): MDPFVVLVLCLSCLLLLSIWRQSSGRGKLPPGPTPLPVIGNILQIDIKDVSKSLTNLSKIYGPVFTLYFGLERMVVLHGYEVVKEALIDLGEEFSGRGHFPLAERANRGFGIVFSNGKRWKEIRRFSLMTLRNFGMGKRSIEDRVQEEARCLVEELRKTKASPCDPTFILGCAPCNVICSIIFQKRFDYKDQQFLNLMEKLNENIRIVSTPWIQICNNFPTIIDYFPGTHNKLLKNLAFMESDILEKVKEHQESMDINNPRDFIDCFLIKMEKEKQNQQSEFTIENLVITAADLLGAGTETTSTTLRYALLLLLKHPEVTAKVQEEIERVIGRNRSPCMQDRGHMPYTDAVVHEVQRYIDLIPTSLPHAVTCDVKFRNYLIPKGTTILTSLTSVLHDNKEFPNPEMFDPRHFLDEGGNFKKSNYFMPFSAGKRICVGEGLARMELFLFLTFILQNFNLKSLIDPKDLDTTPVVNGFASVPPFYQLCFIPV

CN1CCN(c2ccc(OC(F)(F)F)c(Nc3ncc4c(n3)-c3c(c(C(N)=O)nn3CCO)CC4)c2)CC1 [onvansertib, 1-(2-hydroxyethyl)-8-{[5-(4-methylpiperazin-1-yl)-2-(trifluoromethoxy)phenyl]amino}-4,5-dihydro-1H-pyrazolo[4,3-h]quinazoline-3-carboxamide]
IC50 (CYP2C9): 20.4 ± 3.2 µM
IC50 (CYP2C19): 36.9 ± 15.7 µM
IC50 (CYP2D6): 26.8 ± 5.4 µM
DLTs observed ([1]; 36 mg/m^2/day, four patients treated): two
patients who developed DLTs ([1]; 48 mg/m^2/day): 2 of 3
dose-limiting toxicities (DLT) ([1]; first 3 dose levels (6, 12, and 24 mg/m^2/day)): No DLTs
outcome of the one evaluable patient with prostate cancer ([1]; in vivo): disease progression
primary toxicities ([1]; in vivo): thrombocytopenia and neutropenia
best observed treatment response: disease stabilization ([1]; of the 16 evaluable patients): 5 patients
maximum tolerated dose (MTD) ([1]; oral, 5 consecutive days every 3 weeks): 24 mg/m^2/day
recovery of hematologic toxicities ([1]; thrombocytopenia and neutropenia, reversible): ≤ 3 weeks
time at which the amount of onvansertib is below the 10×IC50 value [2]: 160 h
concentration at 290 h ([2]; human, plasma, oral, 0.1 ng/ml is the limit of quantitation, read-out: drug concentrations at 290 hours (˜12 days)): < 0.1 ng/mL
xenograft tumor growth (xenograft tumor): inhibits xenograft tumor growth
activity in proliferation assays [3]: low nanomolar activity
inhibitory effects against CYP1A2 (CYP1A2): No significant inhibitory effects
IC50 (CYP1A2; Tacrine 1-hydroxylation): > 100 µM
patients with disease stabilization after 5 or more treatment cycles ([4]; 03-013 (Arm A) and 01-024 (Arm B)): two
initial PSA stabilization or decrease in AR-V7+ subjects ([4]; AR-V7+ subjects (n=4), August 2019): all
AR-V7 positive patients achieving the primary endpoint of stable disease ([4]; AR-V7 positive patients who completed 3 months of treatment): Three of 4
initial PSA stabilization or decrease in AR-V7 positive patients ([4]; AR-V7 positive patients who completed at least 1 cycle (n=5)): all
patients achieving the efficacy endpoint (PSA stabilization) ([4]; Arm A (n=14)): 5 patients
patients remaining on treatment for >1 year ([4]; Arm A (n=14)): 2 patients
patients with SD or PR at 12 weeks ([4]; Arm A (n=14), 8 of 14): 57%
patients who have or had progression-free survival ([4]; Arm A, 3 of 14): 21%
PSA values at day 8 relative to baseline ([4]; Arm A, after dosing on days 1-5, with abiraterone and prednisone, then increase until next cycle): go down
subjects with initial disease stabilization or reduction, based on PSA levels ([4]; Arm B): 3 subjects
patients achieving the efficacy endpoint (PSA stabilization) ([4]; Arm B (n=5)): 3 patients
patients with SD at 12 weeks ([4]; Arm B (n=5), 4 of 5): 80%
patients who have or had progression-free survival of >7 months ([4]; Arm B, 3 of 5): 60%
tumor shrinkage by CT scan at the end of the study ([4]; Patient 03-013 (AR-V7), Arm A): ~30%
PSA level increase after onvansertib was added ([4]; Patient 03-013 (AR-V7), Arm A, 84 days, with abiraterone/prednisone): 8.4%
PSA level above the baseline (C1D1) PSA level ([4]; Patient 03-013, Arm A, into the fifth cycle): below 25%
patients with decreases in PSA levels ([4]; after 1 cycle of treatment with addition of onvansertib, eighteen out of 25): 72%
AR-V7+ patients who met the primary efficacy endpoint ([4]; of AR-V7+ subjects (n=4), 03-013, 01-024): Two
patients confirmed AR-V7+ that have shown a PSA response ([4]; patients who completed 4 cycles (12 weeks), onvansertib added to abiraterone): 2 of 6
CTC Fold Change ([5]; patient 02-003): 17.9
CTC Count (C5D1) ([5]; patient 02-003, CTC count at C1D1 4.4): 78.6
CTC Fold Change ([5]; patient 02-007): 6.9
CTC Count (C5D1) ([5]; patient 02-007, CTC count at C1D1 2.5): 17.3
CTC Fold Change ([5]; patient 03-004): 3.0
CTC Count (C5D1) ([5]; patient 03-004, CTC count at C1D1 0.4): 1.2
CTC Fold Change ([5]; patient 03-009): 1.5
CTC Count (C5D1) ([5]; patient 03-009, CTC count at C1D1 3.7): 5.4
CTC Fold Change ([5]; patient 03-013): 1.4
CTC Count (C5D1) ([5]; patient 03-013, CTC count at C1D1 2.2): 3.0
median time on treatment ([5]; patients with decrease CTC (n=5), to-date): 7 months
median time on treatment ([5]; patients with increase CTC (n=5)): 5 months
patients converted from unfavorable to favorable CTC level (<5 CTC/7.5 ml) [5, 8]: 40%
patients with a ≥80% CTC decrease [5, 8]: 50%
patients with no detectable CTC [5, 8]: 30%
oral bioavailability [6]: good oral bioavailability
patients with ≥Grade 2 neutropenia after the first cycle [7]: Two
IC50 (CYP3A4; Midazolam l′-hydroxylation): 66.2 ± 4 µM
IC50 (CYP3A4; Testosterone 6β-hydroxylation): 52.7 ± 9.8 µM
IC50 (CYP2C8): 20.2 ± 1.6 µM
